The values below come from US20100184680A1, “THERAPEUTIC USES OF B-TYPE NATRIURETIC PEPTIDE AND HUMAN GROWTH HORMONE 1-43” (priority 2007, published 2010).

Bridge positions count the residues as written; N and C are the ends. Ends that are not written are not given here.

One assay has as its system HCMV strain AD169. The experiment in a line: HCMV plaque formation assay in MRC-5 cells. The format is cell-based.
A further assay has as its system Human A549 cells. The assay is described as follows: Apoptosis prevention assay (C2 ceramide, Annexin-5). To be noted: 10 micrograms per ml, 30 min pretreatment. The format is cell-based.
Assay [1] concerns Tumor Necrosis Factor-α (TNF-α). The experiment in a line: Th1/Th2 cytokine profiling assay: TNF-α. It is filed as cell-based, Balb/c mice. Particulars: 10 micrograms per ml; Ovalbumin restimulation; 72 hours.
Description: (§1) The Balb/c mice (originated in 1923, it is a popular strain and is used in many different research disciplines. Also classified as an inbred from the production of 20 or more successive brother-sister matings, the Balb/c mouse is albino and small in size) were immunized on Days 1, 15, and 29 with Ovalbumin (Ovalbumin is the main protein found in egg white, commonly used to stimulate an immunological reaction in test animals) in PBS (5 micrograms/injection). On day 50, spleens of the mice were harvested (3 weeks after last boost with Ovalbumin). Cells were cultured (2×10^5/well in triplicate) and incubated with culture medium or test peptides—10 micrograms per ml—for 30 min. Thereafter, additional Ovalbumin was added to the cells at 10 micrograms/ml for in vitro restimulation of the cells. 72 hours later, cell supernatants were harvested and assayed using the Becton Dickinson Mouse Th1/Th2 Cytokine CBA Kit. This kit can be used to measure Interleukin-2 (IL-2), Interleukin-4 (IL-4), Interleukin-5 (IL-5), Interferon-γ (IFN-γ), and Tumor Necrosis Factor-α (TNF-α) protein levels in a single sample. The kit performance has been optimized for analysis of physiologically relevant concentrations (pg/ml levels) of specific cytokine proteins in tissue culture supernatants and serum samples.
Another assay relates to Interferon-γ (IFN-γ). The assay is described as follows: Th1/Th2 cytokine profiling assay: IFN-γ. It is filed as cell-based, Balb/c mice. To be noted: 10 micrograms per ml; Ovalbumin restimulation; 72 hours.
The test system of a further assay is Interleukin-2 (IL-2). The assay is described as follows: Th1/Th2 cytokine profiling assay: IL-2. To be noted: 10 micrograms per ml; Ovalbumin restimulation; 72 hours. It is filed as cell-based, Balb/c mice.
In a further assay the test system is Interleukin-4 (IL-4). The assay is described as follows: Th1/Th2 cytokine profiling assay: IL-4. It is filed as cell-based, Balb/c mice. Particulars: 10 micrograms per ml; Ovalbumin restimulation; 72 hours.
The next assay relates to Interleukin-5 (IL-5). The experiment in a line: Th1/Th2 cytokine profiling assay: IL-5. The format is cell-based, Balb/c mice. Particulars: 10 micrograms per ml; Ovalbumin restimulation; 72 hours.
Assay [2] relates to Primary Human endothelial cells (HUVEC). The experiment in a line: Endothelial cell migration assay. To be noted: 10 micrograms per ml, 22 hours. It is filed as cell-based.
The next assay relates to HUVEC. The experiment in a line: Endothelial tube formation assay. It is filed as cell-based, human. Particulars: 10 micrograms per ml, 20 hours. From the text:
Positive control was vehicle only.

Assay [3] deals with isolated buffer-perfused and ventilated rabbit lung. The experiment in a line: Isolated ventilated and buffer perfused lung model. As for the experimental part: The isolated buffer-perfused and ventilated rabbit lung model is established for the investigation of the lung circulation, parenchyma, bronchial system and metabolic processes. Lungs are prepared from intact animals; the lungs are artificially ventilated and blood-free perfused. This model allows the study of pathophysiologic aspects under different conditions. Isolation of the intact lung enables observation of vasoreactivity, ventilation pressures and gas exchange avoiding humoral, central or metabolic influence. Lungs were perfused with test peptide BNP using a pulsatile flow roller pump in a closed system with recirculating buffer fluid. A rabbit ventilator enables the artificial ventilation with room air/carbon dioxide-mixture (CO2). Parameters continuosly measured include lung artery and left atrial pressure and ventilation pressure. Registration of lung weight gain serves as a parameter for development of lung edema. Samples of buffer fluid can be taken through the catheters.
Rabbits (New Zealand white bastards) of either sex, weighing 2.2-2.5 kg were anesthetized, using ketamine (Ketamin Inresa®, Inresa, Freiburg, Germany) and xylazine (Rompun®, Bayer, Leverkusen, Germany). Animals were anticoagulated with heparin (1000 U/kg body weight). After tracheotomy artificial ventilation was started with room air using a Havard respirator (tidal volume 8-12 ml/kg, frequency 30 breaths/min). Midsternal thoracotomy followed in a deep analgosedation and catheters were placed into the pulmonary artery and the left atrium. Lungs were perfused with sterile Krebs-Henseleit hydroxyethylamylopectine buffer (120 mM NaCl, 4.3 mM KCl, 1.1 mM KH2PO4, 25 mM NaHCO3, 2.4 mM CaCl2, 1.3 mM […], 2.4 g/L glucose) and 2.5% hydroxyethylamylopectine (mol weight 200,000) as an oncotic agent (Serag Wiesner, Naila, Germany). All concentrations are given as the final concentration in the buffer fluid.
The isolated lungs were freely suspended from an electronic force transducer (Transducer U1, Hottinger Baldwin Messtechnik, Darmstadt, Germany) in a humidified and tempered glas thorax. Perfusion was performed at a constant rate of 120 mL/min in a recirculating manner (total perfusate volume 300 mL), and the whole system was heated to 38° C. Room air, supplemented with ˜4% carbon dioxide was used for artificial ventilation to reach a pH of 7.34 to 7.38 and a positive end exspiratory pressure (PEEP) was set at 1-1.3 mmHg. Pressure in left atrium was set at 1.2 mmHg (reference point hilum). Pulmonary artery and ventilation pressures were continuously measured and are shown as mean values.
Independent variables in all experiments were: constant perfusion flow rate of 120 ml/min and a ventilator setting (tidal volume 8-12 ml/kg; frequency 30 breaths/min). The main dependent variables included: pressures in trachea and artery which were continuously measured. Lung weight gain as a parameter of lung edema formation was also continuously registered. Under constant flow condition, elevation of the artery pressure directly reflected an increase in vascular resistance.
Thromboxan A2 mimetic U46619 induces vasoconstriction: Lung artery pressure under resting conditions is about 8 mmHg. Slow titration, followed by continuous infusion of the thromboxan A2 mimetic U46619 causes precapillary vasoconstriction of about 25 mmHg. An observation period of up to 3 hours is accessible for further intervention.
Endothelin 1 (ET1) vasoconstricts the lung vasculature and leads to increased pressure in the isolated rabbit lung in a biphasic matter that is dose dependent. Infusion or inhalation of the test peptide of the invention is tested for therapeutic effect of lowering the vasoconstriction.
All data are shown as mean and standard error of mean (SEM). For primary data analysis, comparison was performed between the U46619 group and intravascular administered peptide. […]

The next assay deals with cGMP. The experiment in a line: Cyclic GMP measurement in the rabbit lung model. To be noted: buffer samples from left atrial catheter; RIA; administration dependent. As for the experimental part:
Buffer samples were drawn from the left atrial catheter in the isolated buffer-perfused and ventilated rabbit lung model at predefined time points, every 30 minutes in the control group and every 15 minutes in the intervention groups. Samples were immediately frozen and stored at −80° Celsius. Analysis of cGMP was performed using a commercially available radio immuno (RIA) assay kit.

Another assay has as its system HIV-1IIIB. The assay is described as follows: HIV-1 antiviral assay in CEM-SS cells.
The mark [4] stands for this setting: increasing doses of 5, 10 and 100 nM, isolated rabbit lung.

Protocol for Human A549 cells: Human A549 cells (carcinomic human alveolar basal epithelial cells) were utilized in the experiments employing the Annexin-5 apoptosis assay. […] A549 cells were pretreated for 30 min with test peptides—10 micrograms per ml—followed by the exposure to C2 ceramide.
Description for Interferon-γ (IFN-γ): as §1
Description for Interleukin-2 (IL-2): as §1
Description for Interleukin-4 (IL-4): (§2) The Balb/c mice (originated in 1923, it is a popular strain and is used in many different research disciplines. Also classified as an inbred from the production of 20 or more successive brother-sister matings, the Balb/c mouse is albino and small in size) were immunized on Days 1, 15, and 29 with Ovalbumin (Ovalbumin is the main protein found in egg white, commonly used to stimulate an immunological reaction in test animals) in PBS (5 micrograms/injection). On day 50, spleens of the mice were harvested (3 weeks after last boost with Ovalbumin). Cells were cultured (2×10^5/well in triplicate) and incubated with culture medium or test peptides—10 micrograms per ml—for 30 min. Thereafter, additional Ovalbumin was added to the cells at 10 micrograms/ml for in vitro restimulation of the cells. 72 hours later, cell supernatants were harvested and assayed using the Becton Dickinson Mouse Th1/Th2 Cytokine CBA Kit.
Description for Interleukin-5 (IL-5): as §2

On to `Nc1nc(O)c2ncn(COC(CO)CO)c2n1` [Ganciclovir], for which the “antiviral activity of positive control compound (HCMV)” value in the assay on HCMV strain AD169 is reported as “expected levels of antiviral activity”.

Turning to “Phe-Pro-Thr-Ile-Pro-Leu-Ser-Arg-Leu-Phe-Asp-Asn-Ala-Met-Leu-Arg-Ala-His-Arg-Leu-His-Gln-Leu-Ala-Phe-Asp-Thr-Tyr-Gln-Glu-Phe-Glu-Glu-Ala-Tyr-Ile-Pro-Lys-Glu-Gln-Lys-Tyr-Ser-OH (FPTIPLSRLFDNAMLRAHRLHQLAFDTYQEFEEAYIPKEQKYS-OH) [Peptide 2, Human growth Hormone (1-43); HGH]”, in the assay on Human A549 cells, the “prevented (reduced) ceramide-induced apoptosis on human lung cells” value stood at 18.4%. Moreover, in [1], the “TNF-a spleen cells; TH1 response (% of control)” value was 94.0 % of control. Besides, the “IFNγ spleen cells; TH1 response (% of control)” value in the assay with Interferon-γ (IFN-γ) is recorded as 60.3 % of control. Further, the “IL-2 spleen cells (% of control)” value with Interleukin-2 (IL-2) is on record as 132.2 % of control. In addition, in the assay on Interleukin-4 (IL-4), the “IL-4 spleen cells; TH2 response (% of control)” value is on record as 184.6 % of control. In the assay with Interleukin-5 (IL-5), the “IL-5 spleen cells; TH2 response (% of control)” value is on record as 78.2 % of control. Moreover, the “induced the migration of human endothelial cells” value in assay [2] is recorded as 14%. The “inhibited the tube formation of endothelial cells” value in the assay on HUVEC is listed as 19%.

Consider “Endothelin 1 (CSCSSLMDKECVYFCHLDIIW; disulfide 1-15, 3-11; ends not checked; UniProt P05305 53-73, looked up) [ET1, Endothelin 1 (ET1) vasoconstricts the lung vasculature, reference compound]”, for which the “vasoconstriction (lung artery pressure), stable plateau phase” value in assay [3] (administration into the buffer fluid, rise over 60 minutes) stood at 27±2.16 mmHg.

“Ser-Pro-Lys-Met-Val-Gln-Gly-Ser-Gly-Cys-Phe-Gly-Arg-Lys-Met-Asp-Arg-Ile-Ser-Ser-Ser-Ser-Gly-Leu-Gly-Cys-Lys-Val-Leu-Arg-Arg-His [Peptide 1]”: the “prevented (reduced) ceramide-induced apoptosis on human lung cells” value in the assay with Human A549 cells is recorded as 14.4%. For the same molecule, the “TNF-a spleen cells; TH1 response (% of control)” value in [1] is 93.1 % of control. For the same molecule, the “IFNγ spleen cells; TH1 response (% of control)” value in the assay with Interferon-γ (IFN-γ) was 66.1 % of control. For the same molecule, the “IL-2 spleen cells (% of control)” value in the assay with Interleukin-2 (IL-2) is given as 0.0 % of control. Further, in the assay with Interleukin-4 (IL-4), the “IL-4 spleen cells; TH2 response (% of control)” value is 0.0 % of control. The “IL-5 spleen cells; TH2 response (% of control)” value with Interleukin-5 (IL-5) is 92.7 % of control. In addition, the “inhibited the migration of human endothelial cells” value in assay [2] stood at 21%. Also, in the assay on HUVEC, the “inhibited the tube formation of endothelial cells” value was determined as 3%. In [3] (setting [4]), the “arterial pressure under stable high vasoconstriction” value was “rapid and dose dependent decline”; the lung weight result is “without affecting”; the ventilation pressure entry is “without affecting”. Moreover, the cGMP levels result in the assay on cGMP is “significantly increased”.

As to `Cc1cn([C@H]2C[C@H](N=[N+]=[N-])[C@@H](CO)O2)c(=O)[nH]c1=O` [AZT], the “antiviral activity of positive control compounds (HIV-1)” value with HIV-1IIIB was “expected levels of antiviral activity”.

`CC(C)(C)NC(=O)[C@@H]1CN(Cc2cccnc2)CCN1C[C@@H](O)C[C@@H](Cc1ccccc1)C(=O)N[C@H]1c2ccccc2C[C@H]1O` [indinavir]: the “antiviral activity of positive control compounds (HIV-1)” value in the assay on HIV-1IIIB is “expected levels of antiviral activity”.

Regarding `CCCCC[C@H](O)/C=C/[C@@H]1[C@@H](C/C=C\CCCC(=O)O)[C@H]2CO[C@@H]1C2` [U46619, reference compound], in assay [3] (continuous infusion, after another 135 minutes), the “vasoconstriction (lung artery pressure), plateau at the end of the experiment” value amounted to 25.53±0.9 mmHg. In addition, the “vasoconstriction (lung artery pressure) provoked by continuous infusion” value in assay [3] (within 15 minutes, isolated rabbit lung) amounted to 25.5±0.26 mmHg.
